{
  "source": "patent US12303547B2",
  "about": "“Compound, use, pharmaceutical composition, method of diagnosis, method of treatment, and method of transportation and/or internalization of a compound into eukaryotic cells” (priority 2018, dated 2025)",
  "key": {"[1]": {"test_system": "SK-MEL-28 human melanoma cells", "experiment": "MTT cell viability assay, SK-MEL-28", "type": "cell-based", "settings": "SK-MEL-28, 48 h, increasing concentrations; Amblyomin-X 20 μM", "description": "(§1) Human melanomas (SK-MEL-28), pancreatic adenocarcinomas (MIA-PaCa-2) and murine renal adenocarcinoma cells (RENCA) were obtained and cultured according to the instructions of the American Type Culture Collection (ATCC, Manassas, VA). Human dermal fibroblast cells (HDFa) were obtained from Invitrogen. Endothelial cells were obtained from human umbilical veins (HUVECs), as previously described^11. The study received prior approval from the Research Ethics Committee and the free and informed consent form was obtained from female donors. HUVECs were seeded in T75 flasks previously covered with 2% gelatin and cultured in RPMI medium, supplemented with 10% fetal bovine serum, L-glutamine (2 mM), streptomycin sulfate ([…]), penicillin (100 U/ml) sodium pyruvate ([…]), 2-mercaptoethanol ([…]), ECGF ([…]) and heparin (45 μg/ml), pH 7.4. In all experiments, HUVEC were used in the second or third passages. All cell lines were routinely cultured in a humidified 5% CO2 incubator at 37° C.\n(§2) Cell viability was measured by the 3-(4,5-dimethylthiazol-2-yl)-2,5-diphenyltetrazolium bromide (MTT) assay. […] Afterwards, the medium was discarded, the dark blue crystalline formazan product was dissolved in […] of dimethyl sulfoxide (DMSO), and the absorbance was measured in a Spectra MAX 190 microplate reader (Molecular Devices, Sunnyvale, USA) at 540 nm."}, "[2]": {"test_system": "MIA PaCa-2 pancreatic adenocarcinoma cells", "experiment": "MTT cell viability assay, MIA PaCa-2", "type": "cell-based, human", "settings": "MIA PaCa-2, 48 h, increasing concentrations; Amblyomin-X 20 μM", "description": "as §1, §2"}, "[3]": {"test_system": "murine renal adenocarcinoma cells (RENCA)", "experiment": "MTT cell viability assay, RENCA", "type": "cell-based", "settings": "48 h, preliminary results", "description": "as §1, §2"}, "[4]": {"test_system": "human dermal fibroblasts (HDFa)", "experiment": "MTT cell viability assay, HDFa", "type": "cell-based", "settings": "48 h, preliminary results", "description": "as §1, §2"}, "[5]": {"test_system": "human umbilical vein endothelial cells (HUVEC)", "experiment": "MTT cell viability assay, HUVEC", "type": "cell-based", "settings": "48 h, preliminary results", "description": "as §1, §2"}, "SK-MEL-28": {"test_system": "SK-MEL-28", "experiment": "Cell uptake study with Alexa Fluor 488 labelled molecules, SK-MEL-28", "type": "cell-based, human", "settings": "for Uptake by tumor cells: Alexa Fluor 488 labelled", "description": "(§3) The compound of the invention (C-ter) was chemically coupled with the amine reactive dye (Alexa fluor 488 […] tetra fluorophenyl ester (TFP)) using the Microscale Alexa Fluor® 488 Protein Labeling kit (Molecular Probes), following the manufacturer's instructions. Other entities (Amblyomin-X and its fragment called Kunitz domain) were also modified as described above, for comparative analysis.\n(§4) The dye-conjugated protein was named 488-Amblyomin-X. Briefly, cells (10^4 cells/well) were seeded into 96-well plates. […] The cells were then incubated with Alexa Fluor 555 transferrin (100 μg/ml), the cholera toxin B subunit Alexa Fluor 555 (50 μg/ml) or Alexa Fluor 555 dextran (1 mg/ml) in binding medium to 37° C. for 20 min. Nuclei were stained with Hoechst 332. Then, green and red fluorescence were monitored using a Molecular Devices ImageXpress Micro Confocal plate scanning microscope (Molecular Devices, Sunnyvale, CA) or using LSM 510 Meta confocal microscope (Zeiss, Jena, Germany) followed by evaluation of overlap between 488-Amblyomin-X and endocytosis markers using MetaXpress software (Molecular Devices, Sunnyvale, CA)."}, "Mia PaCa-2": {"test_system": "Mia PaCa-2", "experiment": "Cell uptake study with Alexa Fluor 488 labelled molecules, Mia PaCa-2", "type": "cell-based, human", "settings": "for Uptake by tumor cells: Alexa Fluor 488 labelled", "description": "as §3, §4"}, "HUVEC": {"test_system": "HUVEC", "experiment": "Cell uptake study (confocal), HUVEC", "type": "cell-based, human", "settings": "4 h, preliminary experiments", "description": "as §3\n(§5) The dye-conjugated protein was named 488-Amblyomin-X. Briefly, cells (10^4 cells/well) were seeded into 96-well plates. Once stabilized, the culture medium was replaced and cells were incubated with 488-Amblyomin-X (20 μM) at 37° C. for 2 h, 4 h and 24 h. The cells were then incubated with Alexa Fluor 555 transferrin (100 μg/ml), the cholera toxin B subunit Alexa Fluor 555 (50 μg/ml) or Alexa Fluor 555 dextran (1 mg/ml) in binding medium to 37° C. for 20 min. Nuclei were stained with Hoechst 332. Then, green and red fluorescence were monitored using a Molecular Devices ImageXpress Micro Confocal plate scanning microscope (Molecular Devices, Sunnyvale, CA) or using LSM 510 Meta confocal microscope (Zeiss, Jena, Germany) followed by evaluation of overlap between 488-Amblyomin-X and endocytosis markers using MetaXpress software (Molecular Devices, Sunnyvale, CA)."}, "HDFa": {"test_system": "HDFa", "experiment": "Cell uptake study (confocal), HDFa", "type": "cell-based, human", "settings": "4 h, preliminary experiments", "description": "as §3, §5"}, "Tumor cell lines": {"test_system": "Tumor cell lines", "experiment": "Co-localization with endocytosis and intracellular markers", "type": "cell-based, human", "experimental": "as §5\nTumor cells were cultured in 96-well plates (10^4 cells/well) and treated with 488-Amblyomin-X (20 μM) to indicate times. Cells were washed twice with PHEM-glycine buffer (2 mM HEPES, 10 mM EGTA, 2 mM MgCl2, 60 mM Pipes, 100 mM glycine, pH 6.9) and fixed with 4% paraformaldehyde for 3 h at room temperature. The washing step was repeated and then the cells were incubated with a cell permeabilizing solution (0.1% Tween in PHEM) for 5 minutes at room temperature. Samples were washed and incubated with 1% BSA blocking solution for 30 minutes at room temperature. Next, the primary antibody was incubated overnight at 4° C.: (i) caveolin-1 anti-human mouse 1:100 (Santa Cruz Biotechnology, Inc., USA); (ii) 1:50 anti-human LAMP-2 rabbit (Abcam). […] Next, green and red fluorescence were monitored by a Molecular Devices ImageXpress Micro Confocal Plate Scanning Microscope (Molecular Devices, Sunnyvale, CA) followed by evaluation of overlap between 488-Amblyomin-X and endocytosis markers using MetaXpress software (Molecular Devices, Sunnyvale, CA) or vesicle interactions by Imaris software."}, "SK-MEL-28 cells": {"test_system": "SK-MEL-28 cells", "experiment": "Role of PS in uptake (Na3VO4 or Annexin V pretreatment)", "type": "cell-based, human", "experimental": "To investigate the role of PS in C-ter uptake, cells were pretreated with Annexin V (5 μg/mL) or Na3VO4 (25 μM) and then incubated with fluorochrome-conjugated molecules for 4 hours."}, "HUVECs": {"test_system": "HUVECs", "experiment": "Charge delivery capacity, uptake of Alexa 488 labelled peptides by HUVECs (HCS)", "type": "cell-based, human", "settings": "for uptake by HUVECs (HCS): 10 μM; for detection within HUVECs (HCS): after 4 h, 0.5, 1, 10 and 20 μM", "experimental": "Endothelial cell culture was obtained from umbilical cords by digestion of umbilical cord veins with collagenase as described previously (19) with some modifications (20). Endothelial cells between the first and third passage were used for all experiments. Cells were seeded in 96-well culture plates (Advance, Greiner), special for immunofluorescence, at a density of 8×10^3 cells/well pre-coated with 2% (w/v) gelatin in EGM®-2 BulletKit® medium for HUVECs (Lonza, CC-3162) allowed to seed at 37° C. in a humidified atmosphere of 5% CO2. Cells were treated and incubated in RPMI medium containing 1% fetal bovine serum (FBS) and Alexa-Fluor 488 labeled peptides (C-ter/Seq ID No 1, P4/Seq ID No 2, or P4-Cter/Seq ID No 3) at different concentrations and times. After treatment, the cells were fixed with 4% paraformaldehyde and analyzed in ImageXpress Micro Confocal High-Content Imaging (HCS, Molecular Devices) in Widefield mode and the number of vesicles containing the peptides in the cells was quantified using MetaXpress High-Content Image Acquisition and Analysis Software (Molecular Devices).\nPeptides Cter, P4 and P4-C-ter were labeled with cell-impermeable Alexa Fluor 488. The capacity of P4 and P4-Cter peptides bound to Alexa 488 by HUVECs at 1 h, 2 h and 4 h was analyzed using different concentrations: 0.5 μM, 1 μM, 10 μM and 20 μM (FIG. 9). This was compared with uptake of C-ter peptide linked to Alexa 488 (concentration of 0.5 μM, 1 μM, 10 μM and 20 μM) after 4 hours, as shown in previous experiments for SK-MEL-28 (FIG. 3)."}},
  "note": "Where no end group is shown, it is not given here.",
  "data": [
    {"molecule": "C-ter: polypeptide of SEQ ID No. 1, 50 amino acids, carboxy-terminal end of Amblyomin-X, prepared by chemical synthesis (EEQTHFHFESPKLISFKVQDYWILNDIMKKNLTGISLKSEEEDADSGEID)", "values": [
      {"measurement": "cell viability (MTT)", "setting": "[1]", "result": "no change was observed"},
      {"measurement": "cell viability (MTT)", "setting": "[2]", "result": "no change was observed"},
      {"measurement": "cell viability (MTT)", "setting": "[3]", "result": "decreasing the viability of RENCA by 1 μM"},
      {"measurement": "cell viability (MTT)", "setting": "[4]", "result": "no change was observed"},
      {"measurement": "cell viability (MTT)", "setting": "[5]", "result": "no change was observed"},
      {"measurement": "cells positive for nuclear translocation", "setting": "SK-MEL-28; SK-MEL-28", "result": "few cells were positive"},
      {"measurement": "uptake by cells (green fluorescence, confocal)", "setting": "SK-MEL-28; SK-MEL-28, 20 μM, 4 h, Alexa Fluor 488 complexed", "result": "taken up"},
      {"measurement": "Uptake by tumor cells", "setting": "SK-MEL-28; SK-MEL-28, 0.25 h", "result": "30.84 ± 17.2"},
      {"measurement": "Uptake by tumor cells", "setting": "SK-MEL-28; SK-MEL-28, 0.5 h", "result": "35.56 ± 21.09"},
      {"measurement": "Uptake by tumor cells", "setting": "SK-MEL-28; SK-MEL-28, 1 h", "result": "62.17 ± 11.20"},
      {"measurement": "Uptake by tumor cells", "setting": "SK-MEL-28; SK-MEL-28, 2 h", "result": "558.48 ± 189.00"},
      {"measurement": "Uptake by tumor cells", "setting": "SK-MEL-28; SK-MEL-28, 4 h", "result": "1210.74 ± 379.14"},
      {"measurement": "cells positive for nuclear translocation", "setting": "Mia PaCa-2; MIA PaCa-2", "result": "few cells were positive"},
      {"measurement": "Uptake by tumor cells", "setting": "Mia PaCa-2; Mia PaCa-2, 0.25 h", "result": "3.45 ± 1.34"},
      {"measurement": "Uptake by tumor cells", "setting": "Mia PaCa-2; Mia PaCa-2, 0.5 h", "result": "4.84 ± 1.95"},
      {"measurement": "Uptake by tumor cells", "setting": "Mia PaCa-2; Mia PaCa-2, 1 h", "result": "13.74 ± 7.15"},
      {"measurement": "Uptake by tumor cells", "setting": "Mia PaCa-2; Mia PaCa-2, 2 h", "result": "604.99 ± 24.47"},
      {"measurement": "Uptake by tumor cells", "setting": "Mia PaCa-2; Mia PaCa-2, 4 h", "result": "976.55 ± 74.55"},
      {"measurement": "uptake by non-tumor cells", "setting": "HUVEC", "result": "uptake by these cells"},
      {"measurement": "uptake by non-tumor cells", "setting": "HDFa", "result": "uptake by these cells"},
      {"measurement": "overlap with endocytosis markers (dextran, CTxB, transferrin)", "setting": "Tumor cell lines; Alexa Fluor 555 labelled markers, shortest treatment time", "result": "the highest were with CTxB"},
      {"measurement": "co-localization with late endosomal markers", "setting": "Tumor cell lines; Lyso Tracker, LAMP-2", "result": "found in co-localization with late endosomal markers, Lyso Tracker and LAMP-2"},
      {"measurement": "co-localization with cav-1", "setting": "Tumor cell lines; indirect immunofluorescence", "result": "occurred mainly after 4 hours of treatment"},
      {"measurement": "uptake after pretreatment with Na3VO4", "setting": "SK-MEL-28 cells; SK-MEL-28, Na3VO4 pretreatment, then 4 h", "result": "not affected"},
      {"measurement": "tumor cell penetration after pretreatment with Na3VO4 or Annexin V", "setting": "SK-MEL-28 cells; pretreatment with Na3VO4 or Annexin V", "result": "retains its ability to penetrate tumor cells"}
    ]},
    {"molecule": "P4-Alexa 488: peptide P4 (SEQ ID No. 2) labeled with Alexa Fluor 488 (YAIGYSSKDYK; also: Alexa Fluor 488 label) [reference compound]", "values": [
      {"measurement": "uptake by HUVECs (HCS)", "setting": "HUVECs; 4 h", "result": "poorly detected"},
      {"measurement": "detection within HUVECs (HCS)", "setting": "HUVECs", "result": "not detected within cells"}
    ]},
    {"molecule": "P4-Cter-Alexa488: hybrid peptide P4-Cter (SEQ ID No. 3) labeled with Alexa Fluor 488 (conjugate, also: Alexa Fluor 488 label) YAIGYSSKDYKEEQTHFHFESPKLISFKVQDYWILNDIMKKNLTGISLKSEEEDADSGEID", "values": [
      {"measurement": "uptake by HUVECs (HCS)", "setting": "HUVECs; 1 h", "result": "efficiently absorbed"},
      {"measurement": "detection within HUVECs (HCS)", "setting": "HUVECs", "result": "captured and quantified"}
    ]}
  ]
}
